# Laboratory results: EPA's ToxValDB 9.5
# Where “and” joins values, the source holds several entries; their conditions need not be identical. Equal entries are not always repeated.
# Tested on: Rattus norvegicus
# Conditions: for LD50 / LC50: acute
# [1] = subchronic, duration: 90 days, oral, gavage, Sprague-Dawley
# [2] = subchronic, duration: 90 days, oral, diet, Sprague-Dawley
# [3] = reproduction developmental, duration: 103 weeks, oral, drinking water, generation: F0
# [4] = reproduction developmental, duration: 104 weeks, oral, drinking water
# [5] = reproduction developmental, duration: 59 days, oral, drinking water
compound,measurement,setting,value
"Clc1cccc(Cl)c1 [1,3-Dichlorobenzene]",LD50,"oral, gavage, Sprague-Dawley",1200 mg/kg and 1100 mg/kg and 1000 mg/kg
same,NOAEL,"reproduction developmental, duration: 10 days, oral, gavage, F, Sprague-Dawley",200 mg/kg-day
same,NOAEL,"reproduction developmental, duration: 10 days, oral, gavage, Sprague-Dawley, generation: F1",200 mg/kg-day
same,NOAEL,"reproduction developmental, duration: 90 days, oral, gavage, Sprague-Dawley, generation: F0",147 mg/kg-day
same,LOAEL,[1],147 mg/kg-day
same,NOAEL,[1],37 mg/kg-day
CCCCCCCCCCCCOCCOS(=O)(=O)[O-].[Na+],LD50,oral,1600 mg/kg
c1ccc(B(c2ccccc2)c2ccccc2)cc1 [Triphenylborane],LD50,"oral, gavage, Sprague-Dawley",196 mg/kg
O.O.O=c1nc([O-])n(Cl)c(=O)n1Cl.[Na+] [Sodium dichloroisocyanurate dihydrate],LD50,"dermal, Sprague-Dawley",> 5000 mg/kg
same,LD50,"oral, gavage, Sprague-Dawley",1820 mg/kg
"O=c1c2ccccc2[nH]c2cc3c(=O)c4ccccc4[nH]c3cc12 [5,12-Dihydroquino[2,3-b]acridine-7,14-dione]",LC50,"inhalation, Crl:CD(SD)",≥ 3.1 µg/mL
same,LD50,"oral, gavage, albino",≥ 7500 mg/kg
Cc1cc(N(C)C)ccc1[P+](=O)[O-].[Na+],NOAEL,"reproduction developmental, duration: 14 days, injection, subcutaneous, F, Wistar",50 mg/kg-day
O=C(Cl)C(Cl)Cl [Dichloroacetyl chloride],LD50,oral,2460 mg/kg
same,NOAEL,"subchronic, duration: 30 days, inhalation, Sprague-Dawley",6.03 mg/m3
"CC(O)CN(CCN(CC(C)O)CC(C)O)CC(C)O (stereo not given) [1,1',1'',1'''-(Ethylenedinitrilo)tetrakis(2-propanol)]",LD50,"oral, gavage",11200 mg/kg
same,NOAEL,"subchronic, duration: 3 months, oral, diet, Harlan",≥ 600 mg/kg-day and ≤ 900 mg/kg-day
"CCC(C)Nc1ccc(NC(C)CC)cc1 (stereo not given) [N,N'-Bis(1-methylpropyl)-1,4-benzenediamine]",LC50,"inhalation, Sprague-Dawley",> 0.2 µg/mL
same,LOAEL,"short-term, duration: 28 days, oral, gavage, Sprague-Dawley",10 mg/kg-day
same,LOAEL,[2],500 mg/kg-day
same,NOAEL,[2],100 mg/kg-day
c1ccc(-c2ccccc2-c2ccccc2)cc1 [o-Terphenyl],LOAEL (% diet),"short-term, duration: 14 days, oral, diet, Wistar",0.2
same,NOAEL,"subchronic, duration: 30 days, oral, diet, Sprague-Dawley",100 mg/kg-day
O=c1[n-]c(=O)[nH]c(=O)[nH]1.[Na+] [Monosodium cyanurate],NOAEL,"developmental, duration: 103 weeks, oral, drinking water",5380 ppm
same,NOAEL,"developmental, duration: 10 days, oral, gavage, COBSCD (Charles River)",> 5000 mg/kg-day
same,NOAEL,"reproduction developmental, duration: 13 weeks, oral, drinking water",≥ 5380 ppm
same,LOAEL,[3],5380 ppm
same,NOAEL,[3],1200 ppm
same,NOAEL,"reproduction developmental, duration: 103 weeks, oral, drinking water, generation: F1",5380 ppm
same,NOAEL,"reproduction developmental, duration: 103 weeks, oral, drinking water, generation: F2",5380 ppm
same,LOAEL,[4],5380 ppm
same,NOAEL,[4],2400 ppm
same,NOAEL,"reproduction developmental, duration: 10 days, oral, gavage, F, COBSCD (Charles River)",> 5000 mg/kg-day
same,LOAEL,[5],≥ 2000 ppm
same,NOAEL,[5],≥ 400 ppm and ≤ 1200 ppm
COC(=O)CC(C)=O [Methyl acetoacetate],NOAEL,"developmental, oral, gavage, Crj:CD(SD)",> 1000 mg/kg-day
same,NOAEL,"short-term, duration: 4 weeks, oral, gavage, F, Sprague-Dawley",1000 mg/kg-day
same,NOAEL,"short-term, duration: 4 weeks, oral, gavage, M, Sprague-Dawley",1000 mg/kg-day
CCCC [Butane],NOAEL,"reproduction developmental, inhalation, Sprague-Dawley",21400 mg/m3
CCN(CC)c1ccc2c(c1)Oc1cc(C)c(Nc3ccccc3)cc1C21OC(=O)c2ccccc21 (stereo not given),LD50,"oral, gavage, Sprague-Dawley",> 2000 mg/kg
COC [Dimethyl ether],LC50,"inhalation, Sprague-Dawley",309000 mg/m3
NNC(=S)NN [Thiocarbazide],LD50,"dermal, Wistar",> 500 mg/kg
same,LC50,"inhalation, Wistar",50 mg/m3 and > 75.5 mg/m3
CCCCNS(=O)(=O)c1ccccc1 [N-Butylbenzenesulfonamide],LC50,"Inhalation, Wistar",> 4070 mg/m3
CS(=O)(=O)O [Methanesulfonic acid],LD50,oral,≥ 200 mg/kg and ≤ 400 mg/kg
COc1ccc(O)cc1 [4-Methoxyphenol],NOAEL,"developmental, dermal",40 mg/kg-day
same,NOAEL,"reproduction developmental, dermal, F",40 mg/kg-day
C1CCCNCC1 [Hexamethyleneimine],LD50,"oral, gavage, Sprague-Dawley",9.6 mg/kg and ≥ 8 mg/kg and ≤ 11.4 mg/kg
CCCCCCCC/C=C\CCCCCCCCN [(Z)-9-Octadecenylamine],LD50,"oral, gavage, Sprague-Dawley",1180 mg/kg and 1690 mg/kg
"CC(C)(C)c1ccc(O)c(C(C)(C)C)c1 [2,4-Di-tert-butylphenol]",LD50,"oral, gavage, albino",1500 mg/kg and 1300 mg/kg and 2100 mg/kg
